According to patent publication US20220257597A1, “Methods of Administering Elagolix” (AbbVie Inc., priority 2021, published 2022):
“Also recorded” adds a separate entry of the source.

Columns and labels:
[1] = Phase 1 open-label study: coadministration of combined oral contraceptive (EE+LNG) with elagolix sodium, pharmacokinetics, safety and tolerability; assay type: in vivo, human; settings: healthy premenopausal female subjects
Experimental: Objective: To evaluate the effect of elagolix on the pharmacokinetics, safety, and tolerability of a single dose of a combined oral contraceptive (COC) containing EE and LNG in healthy premenopausal female subjects. […] [table] […] Diagnosis and Main Criteria for Inclusion: Subjects were premenopausal females, and age was between 18 and 49 years, inclusive. Test Product, Dose/Strength/Concentration, and Mode of Administration: […] EE/LNG 0.02 mg/0.1 mg tablet; All study drugs were administered orally. Duration of Treatment: […] EE/LNG: 0.02 mg/0.1 mg on two separate occasions. Criteria for Evaluation: Pharmacokinetic: Cmax, Tmax, t1/2 and AUC. Safety: Vital signs, physical examinations, laboratory tests, and adverse events. […] The tabulation of the number of subjects with treatment-emergent adverse events also was provided with further breakdowns by severity rating and relationship to study drug.

[2] = target: T1, rat gonadotropin-releasing hormone (GnRH) receptor (Rattus norvegicus, UniProt P30969); assay: Binding to rat versus human GnRH receptor; settings: rat vs human GnRH receptor
T1 sequence (P30969 1-327): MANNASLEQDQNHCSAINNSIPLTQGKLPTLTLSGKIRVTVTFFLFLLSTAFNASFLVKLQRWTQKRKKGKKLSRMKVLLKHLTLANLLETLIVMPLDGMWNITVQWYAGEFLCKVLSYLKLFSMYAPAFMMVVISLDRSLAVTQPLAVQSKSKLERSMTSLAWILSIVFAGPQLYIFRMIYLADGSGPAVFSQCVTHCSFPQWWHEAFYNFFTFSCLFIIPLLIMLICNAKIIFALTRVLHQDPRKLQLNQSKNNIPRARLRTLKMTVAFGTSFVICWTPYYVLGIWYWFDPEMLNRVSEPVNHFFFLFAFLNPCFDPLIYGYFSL

[3] = Embryofetal development study in the rabbit
Experimental: Embryofetal development studies were conducted in the rat and rabbit. Elagolix was administered by oral gavage to pregnant rats (25 animals/dose) at doses of 0, 300, 600 and 1200 mg/kg/day and to rabbits (20 animals/dose) at doses of 0, 100, 150, and 200 mg/kg/day, during the period of organogenesis (gestation day 6-17 in the rat and gestation day 7-20 in the rabbit).

[4] = target: efflux transporter P-glycoprotein (P-gp) (Homo sapiens, UniProt P08183); assay: P-glycoprotein inhibition; assay type: in vitro ADME
efflux transporter P-glycoprotein (P-gp), sequence (P08183 whole entry): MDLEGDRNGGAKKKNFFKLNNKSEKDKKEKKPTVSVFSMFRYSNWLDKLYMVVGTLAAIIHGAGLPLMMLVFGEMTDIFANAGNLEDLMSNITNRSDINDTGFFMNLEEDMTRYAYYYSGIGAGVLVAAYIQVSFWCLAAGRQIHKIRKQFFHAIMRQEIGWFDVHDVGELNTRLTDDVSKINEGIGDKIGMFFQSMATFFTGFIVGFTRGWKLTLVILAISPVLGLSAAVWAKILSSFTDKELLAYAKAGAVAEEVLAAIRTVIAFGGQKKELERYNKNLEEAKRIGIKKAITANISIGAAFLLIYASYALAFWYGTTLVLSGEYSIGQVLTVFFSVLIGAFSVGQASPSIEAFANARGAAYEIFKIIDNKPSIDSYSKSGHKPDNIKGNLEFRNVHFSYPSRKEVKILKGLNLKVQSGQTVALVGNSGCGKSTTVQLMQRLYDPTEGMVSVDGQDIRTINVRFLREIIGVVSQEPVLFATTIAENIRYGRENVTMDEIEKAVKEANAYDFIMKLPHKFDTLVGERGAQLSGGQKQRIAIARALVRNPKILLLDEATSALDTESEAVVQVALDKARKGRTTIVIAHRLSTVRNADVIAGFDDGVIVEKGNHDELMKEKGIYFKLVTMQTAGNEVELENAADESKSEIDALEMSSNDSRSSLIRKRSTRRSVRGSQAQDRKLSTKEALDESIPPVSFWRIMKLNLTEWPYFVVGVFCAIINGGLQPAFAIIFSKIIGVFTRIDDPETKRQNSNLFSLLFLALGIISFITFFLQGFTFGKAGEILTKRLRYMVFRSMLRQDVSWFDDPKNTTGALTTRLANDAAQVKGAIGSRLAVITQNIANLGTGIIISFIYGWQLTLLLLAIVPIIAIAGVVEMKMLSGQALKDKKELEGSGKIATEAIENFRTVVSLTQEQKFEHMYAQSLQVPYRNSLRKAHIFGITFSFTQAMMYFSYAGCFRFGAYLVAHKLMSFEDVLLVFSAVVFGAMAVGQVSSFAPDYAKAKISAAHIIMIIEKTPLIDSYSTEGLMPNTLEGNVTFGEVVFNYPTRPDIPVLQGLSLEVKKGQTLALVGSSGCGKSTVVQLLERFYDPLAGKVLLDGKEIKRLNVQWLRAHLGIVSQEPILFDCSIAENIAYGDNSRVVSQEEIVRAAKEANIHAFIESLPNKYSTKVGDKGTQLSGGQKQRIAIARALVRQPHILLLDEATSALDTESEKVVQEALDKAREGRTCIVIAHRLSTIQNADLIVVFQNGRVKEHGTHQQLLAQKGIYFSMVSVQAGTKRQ

[5] = pregnant rabbits, 150 mg/kg/day

COc1cccc(-c2c(C)n(Cc3c(F)cccc3C(F)(F)F)c(=O)n(C[C@H](NCCCC(=O)O)c3ccccc3)c2=O)c1F [elagolix, 4-((R)-2-[5-(2-fluoro-3-methoxy-phenyl)-3-(2-fluoro-6-trifluoromethyl-benzyl)-4-methyl-2,6-dioxo-3,6-dihydro-2H-pyrimidin-1-yl]-1-phenyl-ethylamino)-butyric acid]
tolerability of co-administration of elagolix and EE/LNG [1]: generally well tolerated
binding to the rat GnRH receptor, fold less than to the human GnRH receptor [2]: ~1000 fold
highest, maternally toxic dose with spontaneous abortions and total litter loss, as multiple of the MRHD based on AUC ([3]; pregnant rabbits): 7 times the MRHD
findings at lower non-maternally toxic dose [3, 5]: A single total litter loss
non-maternally toxic dose with total litter loss, as multiple of the MRHD [3, 5]: 4 times the MRHD
findings at the highest, maternally toxic dose ([3]; pregnant rabbits, oral gavage, gestation day 7-20): three spontaneous abortions and a single total litter loss
fetal malformations / structural abnormalities ([3]; rabbit, any dose level tested): no structural abnormalities; also recorded: No fetal malformations
inhibitor of efflux transporter P-glycoprotein (P-gp) [4]: inhibitor
